Test results: ChEMBL document CHEMBL3885861, “Open TG-GATES”

Organism: Rattus norvegicus
Experiment: Open TG-GATES - Regimen: Daily Repeat
Type: toxicity, organism-based, Sprague-Dawley
Parameters: regimen Daily Repeat, gender Male, age 6 weeks
Conditions: in vivo, po, 50 mg/kg, route gavage, dose level Low; for APTT / Bas / Eos / Fbg / Hb / Ht / Lym / MCH / MCHC / MCV / Mono / Neu / PT / Plat / RBC / Ret / WBC: tissue Blood; for KIDNEY_L / KIDNEY_R / KIDNEY_TOTAL: tissue Kidney; for LIVER: tissue Liver; for A/G / ALP / ALT / AST / BUN / CRE / Ca / Cl / DBIL / GLC / IP / K / LDH / Na / PL / RALB / TBIL / TC / TG / TP / gamma-GTP: tissue Plasma

CC(=O)Oc1cc(C(C)C)c(OCCN(C)C)cc1C [MOXISYLYTE]
TERMINAL_BW (72 h, time 3 day): 225.1 g | APTT (72 h, time 3 day): 21.1 s | Bas (72 h, time 3 day): 0% | Eos (72 h, time 3 day): 1% | Fbg (72 h, time 3 day): 329.8 mg/dL | Hb (72 h, time 3 day): 13.7 g/dL | Ht (72 h, time 3 day): 39.1% | Lym (72 h, time 3 day): 80.6% | MCH (72 h, time 3 day): 21.5 pg | MCHC (72 h, time 3 day): 35% | MCV (72 h, time 3 day): 61.5 fL | Mono (72 h, time 3 day): 2.2% | Neu (72 h, time 3 day): 14.6% | PT (72 h, time 3 day): 16.2 s | Plat (72 h, time 3 day): 126.9 x10_4/uL | RBC (72 h, time 3 day): 635.6 x10_4/ul | Ret (72 h, time 3 day): 6% | WBC (72 h, time 3 day): 99.3 x10_2/uL | KIDNEY_L (72 h, time 3 day): 1 g | KIDNEY_R (72 h, time 3 day): 1 g | KIDNEY_TOTAL (72 h, time 3 day): 1.9 g | LIVER (72 h, time 3 day): 10.4 g | A/G (72 h, time 3 day): 1.2 | ALP (72 h, time 3 day): 1826.8 IU/L | ALT (72 h, time 3 day): 42.8 IU/L | AST (72 h, time 3 day): 72.2 IU/L | BUN (72 h, time 3 day): 16.2 mg/dL | CRE (72 h, time 3 day): 0.2 mg/dL | Ca (72 h, time 3 day): 11 mg/dL | Cl (72 h, time 3 day): 106.4 meq/L | DBIL (72 h, time 3 day): 0.004 mg/dL | GLC (72 h, time 3 day): 178.8 mg/dL | IP (72 h, time 3 day): 7.4 mg/dL | K (72 h, time 3 day): 4.5 meq/L | LDH (72 h, time 3 day): 242.8 IU/L | Na (72 h, time 3 day): 141.4 meq/L | PL (72 h, time 3 day): 158.8 mg/dL | RALB (72 h, time 3 day): 3.1 g/dL | TBIL (72 h, time 3 day): 0.004 mg/dL | TC (72 h, time 3 day): 78.2 mg/dL | TG (72 h, time 3 day): 108.8 mg/dL | TP (72 h, time 3 day): 5.7 g/dL | gamma-GTP (72 h, time 3 day): 1.2 IU/L | TERMINAL_BW ([…], time 7 day): 248.6 g | TERMINAL_BW ([…], time 14 day): 317.3 g | TERMINAL_BW ([…], time 28 day): 361 g | APTT ([…], time 7 day): 21.8 s | Bas ([…], time 7 day): 0% | Eos ([…], time 7 day): 0.6% | Fbg ([…], time 7 day): 312.6 mg/dL | Hb ([…], time 7 day): 13.7 g/dL | Ht ([…], time 7 day): 39.2% | Lym ([…], time 7 day): 79.6% | MCH ([…], time 7 day): 20.9 pg | MCHC ([…], time 7 day): 35.1% | MCV ([…], time 7 day): 59.5 fL | Mono ([…], time 7 day): 2.2% | Neu ([…], time 7 day): 16.8% | PT ([…], time 7 day): 15.9 s | Plat ([…], time 7 day): 122.1 x10_4/uL | RBC ([…], time 7 day): 659 x10_4/ul | Ret ([…], time 7 day): 4.9% | WBC ([…], time 7 day): 88.2 x10_2/uL | APTT ([…], time 14 day): 20.8 s | Bas ([…], time 14 day): 0% | Eos ([…], time 14 day): 1% | Fbg ([…], time 14 day): 308.8 mg/dL | Hb ([…], time 14 day): 14.2 g/dL | Ht ([…], time 14 day): 39.3% | Lym ([…], time 14 day): 77.8% | MCH ([…], time 14 day): 20.7 pg | MCHC ([…], time 14 day): 36.2% | MCV ([…], time 14 day): 57.2 fL | Mono ([…], time 14 day): 2.4% | Neu ([…], time 14 day): 18% | PT ([…], time 14 day): 16.1 s | Plat ([…], time 14 day): 108.1 x10_4/uL | RBC ([…], time 14 day): 686.8 x10_4/ul | Ret ([…], time 14 day): 5.1% | WBC ([…], time 14 day): 113.2 x10_2/uL | APTT ([…], time 28 day): 24.3 s | Bas ([…], time 28 day): 0% | Eos ([…], time 28 day): 1.2% | Fbg ([…], time 28 day): 324.8 mg/dL | Hb ([…], time 28 day): 14.9 g/dL | Ht ([…], time 28 day): 41.8% | Lym ([…], time 28 day): 84% | MCH ([…], time 28 day): 19.3 pg | MCHC ([…], time 28 day): 35.6% | MCV ([…], time 28 day): 54.3 fL | Mono ([…], time 28 day): 2% | Neu ([…], time 28 day): 12% | PT ([…], time 28 day): 16 s | Plat ([…], time 28 day): 101.5 x10_4/uL | RBC ([…], time 28 day): 770 x10_4/ul | Ret ([…], time 28 day): 2.5% | WBC ([…], time 28 day): 142.9 x10_2/uL | KIDNEY_L ([…], time 7 day): 1.1 g | KIDNEY_R ([…], time 7 day): 1.1 g | KIDNEY_TOTAL ([…], time 7 day): 2.2 g | KIDNEY_L ([…], time 14 day): 1.3 g | KIDNEY_R ([…], time 14 day): 1.2 g | KIDNEY_TOTAL ([…], time 14 day): 2.5 g | KIDNEY_L ([…], time 28 day): 1.4 g | KIDNEY_R ([…], time 28 day): 1.4 g | KIDNEY_TOTAL ([…], time 28 day): 2.8 g | LIVER ([…], time 7 day): 11.2 g | LIVER ([…], time 14 day): 14 g | LIVER ([…], time 28 day): 14.8 g | A/G ([…], time 7 day): 1.2 | ALP ([…], time 7 day): 1475.2 IU/L | ALT ([…], time 7 day): 45 IU/L | AST ([…], time 7 day): 82.6 IU/L | BUN ([…], time 7 day): 16.6 mg/dL | CRE ([…], time 7 day): 0.2 mg/dL | Ca ([…], time 7 day): 10.6 mg/dL | Cl ([…], time 7 day): 106.6 meq/L | DBIL ([…], time 7 day): 0 mg/dL | GLC ([…], time 7 day): 179.4 mg/dL | IP ([…], time 7 day): 6.8 mg/dL | K ([…], time 7 day): 4.1 meq/L | LDH ([…], time 7 day): 202 IU/L | Na ([…], time 7 day): 141.6 meq/L | PL ([…], time 7 day): 146.6 mg/dL | RALB ([…], time 7 day): 3 g/dL | TBIL ([…], time 7 day): 0 mg/dL | TC ([…], time 7 day): 70.6 mg/dL | TG ([…], time 7 day): 144 mg/dL | TP ([…], time 7 day): 5.5 g/dL | gamma-GTP ([…], time 7 day): 1.2 IU/L | A/G ([…], time 14 day): 1.2 | ALP ([…], time 14 day): 1349.4 IU/L | ALT ([…], time 14 day): 45.8 IU/L | AST ([…], time 14 day): 77.8 IU/L | BUN ([…], time 14 day): 19.8 mg/dL | CRE ([…], time 14 day): 0.2 mg/dL | Ca ([…], time 14 day): 10.8 mg/dL | Cl ([…], time 14 day): 107 meq/L | DBIL ([…], time 14 day): 0 mg/dL | GLC ([…], time 14 day): 186.6 mg/dL | IP ([…], time 14 day): 6.3 mg/dL | K ([…], time 14 day): 4.4 meq/L | LDH ([…], time 14 day): 256 IU/L | Na ([…], time 14 day): 141 meq/L | PL ([…], time 14 day): 156 mg/dL | RALB ([…], time 14 day): 3.2 g/dL | TBIL ([…], time 14 day): 0.002 mg/dL | TC ([…], time 14 day): 73.2 mg/dL | TG ([…], time 14 day): 184.6 mg/dL | TP ([…], time 14 day): 5.8 g/dL | gamma-GTP ([…], time 14 day): 1.4 IU/L | A/G ([…], time 28 day): 1 | ALP ([…], time 28 day): 1078.4 IU/L | ALT ([…], time 28 day): 40.2 IU/L | AST ([…], time 28 day): 66.8 IU/L | BUN ([…], time 28 day): 17 mg/dL | CRE ([…], time 28 day): 0.2 mg/dL | Ca ([…], time 28 day): 10.4 mg/dL | Cl ([…], time 28 day): 106.6 meq/L | DBIL ([…], time 28 day): 0.002 mg/dL | GLC ([…], time 28 day): 184.4 mg/dL | IP ([…], time 28 day): 6.4 mg/dL | K ([…], time 28 day): 4.2 meq/L | LDH ([…], time 28 day): 147 IU/L | Na ([…], time 28 day): 142 meq/L | PL ([…], time 28 day): 151.2 mg/dL | RALB ([…], time 28 day): 3 g/dL | TBIL ([…], time 28 day): 0.002 mg/dL | TC ([…], time 28 day): 70 mg/dL | TG ([…], time 28 day): 170.4 mg/dL | TP ([…], time 28 day): 6 g/dL | gamma-GTP ([…], time 28 day): 2 IU/L
